From PubChem BioAssay (NCI)
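48-hour exposure; five concentrations; linearly interpolated endpoints. TGI: concentration producing complete growth inhibition.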

What was measured:
Assay in all cases: NCI anticancer screen, dose series, 48 h
[1] = test system: OVCAR-5 ovarian
[2] = test system: BT-549 breast
[3] = test system: SR leukemia
[4] = test system: NCI/ADR-RES ovarian
[5] = test system: SK-OV-3 ovarian
[6] = test system: EKVX NSCLC
[7] = test system: OVCAR-8 ovarian
[8] = test system: HCT-116 colon
[9] = test system: MALME-3M melanoma
[10] = test system: SK-MEL-28 melanoma
[11] = test system: NCI-H460 lung
[12] = test system: PC-3 prostate
[13] = test system: HT29 colon
[14] = test system: KM12 colon
[15] = test system: RPMI-8226 leukemia
[16] = test system: DU-145 prostate
[17] = test system: SW-620 colon
[18] = test system: SF-295 CNS
[19] = test system: A549 NSCLC
[20] = test system: MOLT-4 leukemia
[21] = test system: 786-0 renal
[22] = test system: SF-268 CNS
[23] = test system: OVCAR-4 ovarian
[24] = test system: TK-10 renal
[25] = test system: RXF 393 renal
[26] = test system: MDA-N
[27] = test system: COLO 205 colon
[28] = test system: OVCAR-3 ovarian
[29] = test system: SK-MEL-5 melanoma
[30] = test system: NCI-H23 lung
[31] = test system: K-562 leukemia
[32] = test system: HOP-62 NSCLC
[33] = test system: SN12C renal
[34] = test system: HCT-15 colon
[35] = test system: UACC-257 melanoma
[36] = test system: NCI-H226 lung
[37] = test system: MCF7 breast
[38] = test system: NCI-H522 lung
[39] = test system: UO-31 renal
[40] = test system: U251 CNS
[41] = test system: SK-MEL-2 melanoma
[42] = test system: M14 melanoma
[43] = test system: SF-539 CNS
[44] = test system: HCC-2998 colon
[45] = test system: ACHN renal
[46] = test system: SNB-75 CNS
[47] = test system: HOP-92 NSCLC
[48] = test system: CAKI-1 renal
[49] = test system: HL-60(TB) leukemia
[50] = test system: IGROV1 ovarian
[51] = test system: SNB-19 CNS
[52] = test system: UACC-62 melanoma
[53] = test system: CCRF-CEM leukemia
[54] = test system: T-47D breast
[55] = test system: A498 renal
[56] = test system: MDA-MB-231 breast
[57] = test system: LOX IMVI melanoma
[58] = test system: HS 578T breast
[59] = test system: MDA-MB-435

SMILES: N#C/C(=C\c1cc(F)cc(F)c1)c1ccccn1
- TGI [1]: > 100 µM
- TGI [2]: 97.1 µM
- TGI [3]: 88.6 µM
- TGI [4]: 66.9 µM
- TGI [5]: > 100 µM
- TGI [6]: 44.3 µM
- TGI [7]: 45.4 µM
- TGI [8]: > 100 µM
- TGI [9]: 73.9 µM
- TGI [10]: > 100 µM
- TGI [11]: 74 µM
- TGI [12]: > 100 µM
- TGI [13]: > 100 µM
- TGI [14]: 68 µM
- TGI [15]: > 100 µM
- TGI [16]: > 100 µM
- TGI [17]: > 10 µM
- TGI [18]: 60.2 µM
- TGI [19]: > 100 µM
- TGI [20]: 45.8 µM
- TGI [21]: > 10 µM
- TGI [22]: 52.8 µM
- TGI [23]: > 100 µM
- TGI [24]: > 100 µM
- TGI [25]: > 100 µM
- TGI [26]: > 100 µM
- TGI [27]: > 10 µM
- TGI [28]: > 100 µM
- TGI [29]: > 100 µM
- TGI [30]: 72.8 µM
- TGI [31]: > 100 µM
- TGI [32]: > 10 µM
- TGI [33]: 62.9 µM
- TGI [34]: 34.2 µM
- TGI [35]: > 100 µM
- TGI [36]: 56.9 µM
- TGI [37]: > 100 µM
- TGI [38]: 74.8 µM
- TGI [39]: > 100 µM
- TGI [40]: 40 µM
- TGI [41]: > 100 µM
- TGI [42]: 88.6 µM
- TGI [43]: 43.5 µM
- TGI [44]: 60 µM
- TGI [45]: > 100 µM
- TGI [46]: > 100 µM
- TGI [47]: 48.1 µM
- TGI [48]: > 100 µM
- TGI [49]: > 10 µM
- TGI [50]: > 100 µM
- TGI [51]: > 100 µM
- TGI [52]: > 100 µM
- TGI [53]: > 100 µM

SMILES: CCCCc1ccc(-n2c(C)c(COC(=O)NC)c(COC(=O)NC)c2C)cc1
- TGI [54]: 27 µM
- TGI [55]: 2.6 µM
- TGI [1]: 17.1 µM
- TGI [3]: 17.2 µM
- TGI [4]: 27.4 µM
- TGI [5]: 14.1 µM
- TGI [6]: 27.8 µM
- TGI [7]: 16.5 µM
- TGI [8]: 17.8 µM
- TGI [9]: 22 µM
- TGI [10]: 33.8 µM
- TGI [11]: 18 µM
- TGI [12]: 32 µM
- TGI [13]: 24.9 µM
- TGI [14]: 29.3 µM
- TGI [15]: 19.8 µM
- TGI [16]: 26.3 µM
- TGI [17]: 21.4 µM
- TGI [18]: 24.4 µM
- TGI [19]: 19.6 µM
- TGI [21]: 16 µM
- TGI [22]: 20.3 µM
- TGI [24]: 12.4 µM
- TGI [25]: 9.8 µM
- TGI [26]: 31.3 µM
- TGI [56]: 17.8 µM
- TGI [27]: 19.6 µM
- TGI [28]: 24.5 µM
- TGI [29]: 23.5 µM
- TGI [30]: 26.4 µM
- TGI [31]: > 100 µM
- TGI [32]: 21.6 µM
- TGI [33]: 14.5 µM
- TGI [34]: 20.9 µM
- TGI [35]: 24 µM
- TGI [36]: 2.85 µM
- TGI [57]: 18.4 µM
- TGI [37]: 19.3 µM
- TGI [38]: 9.3 µM
- TGI [39]: 10.6 µM
- TGI [40]: 17.4 µM
- TGI [42]: 24.5 µM
- TGI [43]: 15.9 µM
- TGI [44]: 30.7 µM
- TGI [45]: 7.22 µM
- TGI [46]: 19.4 µM
- TGI [47]: 11.5 µM
- TGI [48]: 15.9 µM
- TGI [58]: 45.9 µM
- TGI [49]: 24.4 µM
- TGI [51]: 30.4 µM
- TGI [52]: 10.5 µM
- TGI [53]: 18.4 µM
- TGI [59]: 28.1 µM

SMILES: CCOC(=O)NC(Nc1ncn(C(NC(=O)OCC)(C(F)(F)F)C(F)(F)F)n1)(C(F)(F)F)C(F)(F)F
- TGI [54]: > 100 µM
- TGI [55]: > 100 µM
- TGI [1]: > 100 µM
- TGI [3]: > 100 µM
- TGI [4]: > 100 µM
- TGI [5]: > 100 µM
- TGI [6]: > 100 µM
- TGI [7]: > 100 µM
- TGI [8]: > 100 µM
- TGI [9]: > 100 µM
- TGI [10]: > 100 µM
- TGI [11]: > 100 µM
- TGI [12]: > 100 µM
- TGI [13]: > 100 µM
- TGI [14]: > 100 µM
- TGI [15]: > 100 µM
- TGI [16]: > 100 µM
- TGI [17]: > 100 µM
- TGI [18]: > 100 µM
- TGI [19]: > 100 µM
- TGI [20]: > 100 µM
- TGI [21]: > 100 µM
- TGI [22]: > 100 µM
- TGI [23]: > 100 µM
- TGI [24]: > 100 µM
- TGI [25]: > 100 µM
- TGI [26]: > 100 µM
- TGI [56]: > 100 µM
- TGI [27]: > 100 µM
- TGI [28]: > 100 µM
- TGI [29]: > 100 µM
- TGI [30]: > 100 µM
- TGI [31]: > 100 µM
- TGI [32]: > 100 µM
- TGI [33]: > 100 µM
- TGI [34]: > 100 µM
- TGI [35]: > 100 µM
- TGI [36]: > 100 µM
- TGI [57]: > 100 µM
- TGI [37]: > 100 µM
- TGI [39]: 30.3 µM
- TGI [40]: > 100 µM
- TGI [42]: > 100 µM
- TGI [43]: > 100 µM
- TGI [44]: > 100 µM
- TGI [45]: > 100 µM
- TGI [46]: > 100 µM
- TGI [47]: > 100 µM
- TGI [48]: > 100 µM
- TGI [58]: > 100 µM
- TGI [49]: > 100 µM
- TGI [50]: > 100 µM
- TGI [51]: > 100 µM
- TGI [52]: > 100 µM
- TGI [53]: > 100 µM
- TGI [59]: > 100 µM
